Laboratory results published in ChEMBL document CHEMBL1123728, “Rational design of 4-[(methylsulfonyl)amino]benzamides as class III antiarrhythmic agents” (J Med Chem, 1987).
The source made the active and inactive calls.

How the values were obtained:
Canis familiaris [1] = organism: Canis familiaris; assay: Concentration required for 20% increase in the functional refractory period of canine ventricular muscle (extracellular electrophysiology) in vitro was reported, range is 0.3-1.1; set-up: species or system Canis lupus familiaris
Canis familiaris [2] = organism: Canis familiaris; assay: Concentration required for 20% increase in action potential duration of canine Purkinje fiber (intracellular electrophysiology) in vitro measured at 95% repolarization was reported. Range is between 0.2-5; type: functional, Canis lupus familiaris
Canis familiaris [3] = assay: Efficacy in blocking sustained ventricular tachycardia (rate>250 bpm) elicited by programmed electrical stimulation in anesthetized dogs after iv administration of dose 0.8 mg/kg; no. of successful exp / total no. of exp = 5/9; type: functional, Canis lupus familiaris, Cardiac ventricle
Canis familiaris [4] = organism: Canis familiaris; assay: Concentration required for 20% increase in action potential duration of canine Purkinje fiber (intracellular electrophysiology) in vitro measured at 95% repolarization was reported. NR means 10% increase in APD95 (C10APD95) was observed at 30 um(22; type: functional; conditions: Canis lupus familiaris
Canis familiaris [5] = assay: Efficacy in blocking sustained ventricular tachycardia (rate>250 bpm) elicited by programmed electrical stimulation in anesthetized dogs after iv administration of dose 9 mg/kg; no. of successful exp / total no. of exp = 4/4; type: functional, Canis lupus familiaris, Cardiac ventricle
Canis familiaris [6] = organism: Canis familiaris; assay: Concentration required for 20% increase in the functional refractory period of canine ventricular muscle (extracellular electrophysiology) in vitro was reported. Range is between 5.6-800; set-up: species or system Canis lupus familiaris
Canis familiaris [7] = organism: Canis familiaris; assay: Concentration required for 20% increase in action potential duration of canine Purkinje fiber (intracellular electrophysiology) in vitro measured at 95% repolarization was reported;NR means not reached; type: functional; conditions: Canis lupus familiaris
Canis familiaris [8] = organism: Canis familiaris; assay: Concentration required for 20% increase in the functional refractory period of canine ventricular muscle (extracellular electrophysiology) in vitro was reported;NR means not reached; conditions: Canis lupus familiaris
Canis familiaris [9] = organism: Canis familiaris; assay: Concentration required for 20% increase in the functional refractory period of canine ventricular muscle (extracellular electrophysiology) in vitro was reported. Range is between 1.2-150; set-up: species or system Canis lupus familiaris
Canis familiaris [10] = organism: Canis familiaris; assay: Concentration required for 20% increase in action potential duration of canine Purkinje fiber (intracellular electrophysiology) in vitro measured at 95% repolarization was reported. Range is between 0.2-0.5; type: functional, Canis lupus familiaris
Canis familiaris [11] = assay: Efficacy in blocking sustained ventricular tachycardia (rate>250 bpm) elicited by programmed electrical stimulation in conscious dogs after iv administration of 0.8 mg/kg; no. of successful exp / total no. of exp = 5/5; type: functional, Canis lupus familiaris, Cardiac ventricle
Canis familiaris [12] = organism: Canis familiaris; assay: Concentration required for 20% increase in action potential duration of canine Purkinje fiber (intracellular electrophysiology) in vitro measured at 95% repolarization was reported. Range is between 1.8-2.0; type: functional, Canis lupus familiaris
Canis familiaris [13] = organism: Canis familiaris; assay: Concentration required for 20% increase in the functional refractory period of canine ventricular muscle (extracellular electrophysiology) in vitro was reported; set-up: species or system Canis lupus familiaris
Canis familiaris [14] = assay: Efficacy in blocking sustained ventricular tachycardia (rate>250 bpm) elicited by programmed electrical stimulation in anesthetized dogs after iv administration of dose 1.0 mg/kg; no. of successful exp / total no. of exp = 3/4; type: functional, Canis lupus familiaris, Cardiac ventricle
Canis familiaris [15] = assay: Efficacy in blocking sustained ventricular tachycardia (rate>250 bpm) elicited by programmed electrical stimulation in conscious dogs after iv administration of dose 0.5 mg/kg; no. of successful exp / total no. of exp = 4/4; type: functional, Canis lupus familiaris, Cardiac ventricle
Canis familiaris [16] = assay: Efficacy in blocking sustained ventricular tachycardia (rate>250 bpm) elicited by programmed electrical stimulation in anesthetized dogs after iv administration of 0.5 mg/kg; no. of successful exp / total no. of exp = 4/4; type: functional, Canis lupus familiaris, Cardiac ventricle
Canis familiaris [17] = assay: Efficacy in blocking sustained ventricular tachycardia (rate>250 bpm) elicited by programmed electrical stimulation in conscious dogs after iv administration of dose 3 mg/kg; no. of successful exp / total no. of exp = 4/4; type: functional, Canis lupus familiaris, Cardiac ventricle
Canis familiaris [18] = organism: Canis familiaris; assay: Concentration required for 20% increase in the functional refractory period of canine ventricular muscle (extracellular electrophysiology) in vitro was reported. Range is between 9-4000; set-up: species or system Canis lupus familiaris
Canis familiaris [19] = assay: Efficacy in blocking sustained ventricular tachycardia (rate>250 bpm) elicited by programmed electrical stimulation in anesthetized dogs after iv administration of dose 1 mg/kg; no. of successful exp / total no. of exp = 2/7; type: functional, Canis lupus familiaris, Cardiac ventricle
Canis familiaris [20] = organism: Canis familiaris; assay: Concentration required for 20% increase in action potential duration of canine Purkinje fiber (intracellular electrophysiology) in vitro measured at 95% repolarization was reported. Range is between 9-63; type: functional, Canis lupus familiaris
Canis familiaris [21] = organism: Canis familiaris; assay: Concentration required for 20% increase in action potential duration of canine Purkinje fiber (intracellular electrophysiology) in vitro measured at 95% repolarization was reported; NR means not reached; type: functional; conditions: Canis lupus familiaris
Canis familiaris [22] = organism: Canis familiaris; assay: Concentration required for 20% increase in the functional refractory period of canine ventricular muscle (extracellular electrophysiology) in vitro was reported; NR means not reached; conditions: Canis lupus familiaris
Canis familiaris [23] = organism: Canis familiaris; assay: Concentration required for 20% increase in the functional refractory period of canine ventricular muscle (extracellular electrophysiology) in vitro was reported. Range is between 0.8-11; set-up: species or system Canis lupus familiaris
Canis familiaris [24] = organism: Canis familiaris; assay: Concentration required for 20% increase in action potential duration of canine Purkinje fiber (intracellular electrophysiology) in vitro measured at 95% repolarization was reported. Range is between 0.08-5; type: functional, Canis lupus familiaris
Canis familiaris [25] = organism: Canis familiaris; assay: Concentration required for 20% increase in the functional refractory period of canine ventricular muscle (extracellular electrophysiology) in vitro was reported. Range is between 1.6-25; set-up: species or system Canis lupus familiaris
Canis familiaris [26] = organism: Canis familiaris; assay: Concentration required for 20% increase in action potential duration of canine Purkinje fiber (intracellular electrophysiology) in vitro measured at 95% repolarization was reported. Range is between 1.0-34; type: functional, Canis lupus familiaris
Canis familiaris [27] = assay: Efficacy in blocking sustained ventricular tachycardia (rate>250 bpm) elicited by programmed electrical stimulation in anesthetized dogs after iv administration of dose 1.4 mg/kg; no. of successful exp / total no. of exp = 3/5; type: functional, Canis lupus familiaris, Cardiac ventricle
[28] = pKa2 was determined; type: physicochemical; conditions: read-out: pKa2
[29] = Half life period was determined; conditions: dog
Canis familiaris [30] = assay: Efficacy in blocking sustained ventricular tachycardia (rate>250 bpm) elicited by programmed electrical stimulation in 4 anesthetized dogs after iv administration of dose 1 mg/kg; no. of successful exp / total no. of exp = 4/4; type: functional, Canis lupus familiaris, Cardiac ventricle
Canis familiaris [31] = organism: Canis familiaris; assay: Concentration required for 20% increase in the functional refractory period of canine ventricular muscle (extracellular electrophysiology) in vitro was reported. Range is between 9-35; set-up: species or system Canis lupus familiaris
Canis familiaris [32] = organism: Canis familiaris; assay: Concentration required for 20% increase in action potential duration of canine Purkinje fiber (intracellular electrophysiology) in vitro measured at 95% repolarization was reported. RAnge is between 2.0-11.4; type: functional, Canis lupus familiaris
[33] = Bioavailability after peroral administration (3 mg/kg) in dog was determined; Range 41-98%; type: ADME, organism-based, Canis lupus familiaris; conditions: in vivo, po, read-out: Bioavailabiility
[34] = pKa1 was determined; type: physicochemical; conditions: read-out: pKa1
Mus musculus = assay: Acute toxicity after intraperitoneal administration in mouse was determined; range 250-300 mg/kg; type: functional; conditions: ip
Canis familiaris [35] = assay: Efficacy in blocking sustained ventricular tachycardia (rate>250 bpm) elicited by programmed electrical stimulation in conscious dogs. Administered orally at a dose of 2.5 mg/kg after iv administration; no. of successful exp / total no. of exp = 5 /6; type: functional, Canis lupus familiaris, Cardiac ventricle; conditions: route oral
Canis familiaris [36] = organism: Canis familiaris; assay: Concentration required for 20% increase in the functional refractory period of canine ventricular muscle (extracellular electrophysiology) in vitro was reported. Range is between 0.05-3.7; set-up: species or system Canis lupus familiaris
Canis familiaris [37] = organism: Canis familiaris; assay: Concentration required for 20% increase in action potential duration of canine Purkinje fiber (intracellular electrophysiology) in vitro measured at 95% repolarization was reported. Range is between 0.01-0.03; type: functional, Canis lupus familiaris
Canis familiaris [38] = organism: Canis familiaris; assay: Concentration required for 20% increase in the functional refractory period of canine ventricular muscle (extracellular electrophysiology) in vitro was reported;NR=at 10 uM the FRP was increased 13%; conditions: Canis lupus familiaris
Canis familiaris [39] = assay: Efficacy in blocking sustained ventricular tachycardia (rate>250 bpm) elicited by programmed electrical stimulation in conscious dogs after iv administration of dose 1 mg/kg; no. of successful exp / total no. of exp = 5/6; type: functional, Canis lupus familiaris, Cardiac ventricle
Canis familiaris [40] = organism: Canis familiaris; assay: Concentration required for 20% increase in action potential duration of canine Purkinje fiber (intracellular electrophysiology) in vitro measured at 95% repolarization was reported. Range is between 0.03-2; type: functional, Canis lupus familiaris
Canis familiaris [41] = assay: Efficacy in blocking sustained ventricular tachycardia (rate>250 bpm) elicited by programmed electrical stimulation in anesthetized dogs after iv administration of dose 0.3 mg/kg; no. of successful exp / total no. of exp = 7/10; type: functional, Canis lupus familiaris, Cardiac ventricle
Canis familiaris [42] = organism: Canis familiaris; assay: Decrease in Vmax in isolated canine Purkinje fibers at 10 uM; type: functional, Canis lupus familiaris, Purkinje fiber

C=CCN(CCN(CC)CC)C(=O)c1ccc(NS(C)(=O)=O)cc1
C20 FRP (Canis familiaris [1]): 0.5 µM
C20 APD95 (Canis familiaris [2]): 0.5 µM
Efficacy (Canis familiaris [3]): 5

CCN(CC)CCNC(=O)c1ccc(NC(C)=O)cc1 [ACECAINIDE]
C20 APD95 (Canis familiaris [4]): Partially active
Efficacy (Canis familiaris [5]): 4
C20 FRP (Canis familiaris [6]): 60 µM

CCN(CC)CCNC(=O)c1ccc(NS(=O)(=O)C(F)(F)F)cc1
C20 APD95 (Canis familiaris [7]): Not reached
C20 FRP (Canis familiaris [8]): Not reached

CCN(CC)C1CCC(NC(=O)c2ccc(NS(C)(=O)=O)cc2)CC1.Cl (configuration not stated)
C20 FRP (Canis familiaris [9]): 3 µM
C20 APD95 (Canis familiaris [10]): 0.4 µM
Efficacy (Canis familiaris [11]): 5
C20 APD95 (Canis familiaris [12]): 1.9 µM
C20 FRP (Canis familiaris [13]): 40 µM
Efficacy (Canis familiaris [14]): 3
Efficacy (Canis familiaris [15]): 4
Efficacy (Canis familiaris [16]): 4

CC(C)NCC(O)c1ccc(NS(C)(=O)=O)cc1 (racemic) [SOTALOL]
Efficacy (Canis familiaris [17]): 4
C20 FRP (Canis familiaris [18]): 52 µM
Efficacy (Canis familiaris [19]): 2
C20 APD95 (Canis familiaris [20]): 22 µM

CCN(CC)CCNC(=O)c1ccc(NS(=O)(=O)CC)cc1
C20 APD95 (Canis familiaris [21]): Not reached
C20 FRP (Canis familiaris [22]): Not reached

CCCCCCCNCCNC(=O)c1ccc(NS(C)(=O)=O)cc1.Cl
C20 FRP (Canis familiaris [23]): 4 µM
C20 APD95 (Canis familiaris [24]): 0.2 µM

CCN(CC)CCCNC(=O)c1ccc(NS(C)(=O)=O)cc1
C20 FRP (Canis familiaris [25]): 4 µM
C20 APD95 (Canis familiaris [26]): 2 µM
Efficacy (Canis familiaris [27]): 3

CCN(CC)CCNC(=O)c1ccc(NS(C)(=O)=O)cc1.Cl [SEMATILIDE HYDROCHLORIDE]
pKa [28]: 9.51
half-life [29]: 2.7 h
Efficacy (Canis familiaris [30]): 4
C20 FRP (Canis familiaris [31]): 17 µM
C20 APD95 (Canis familiaris [32]): 3.5 µM
bioavailability [33]: 41%
pKa [34]: 7.6
LD50 (Mus musculus): 250 mg/kg
Efficacy (Canis familiaris [35]): 5

CCNCCNC(=O)c1ccc(NS(C)(=O)=O)cc1
C20 APD95 (Canis familiaris [7]): Not reached
C20 FRP (Canis familiaris [8]): Not reached

CCCCCCCN(CC)CCNC(=O)c1ccc(NS(C)(=O)=O)cc1
C20 FRP (Canis familiaris [36]): 0.5 µM
C20 APD95 (Canis familiaris [37]): 0.02 µM

CCN(CC)CCNC(=O)c1ccc(N(C)S(C)(=O)=O)cc1
C20 APD95 (Canis familiaris [7]): Not reached
C20 FRP (Canis familiaris [22]): Not reached

CCCCCCC[N+](CC)(CC)CCCCc1ccc(Cl)cc1 [CLOFILIUM]
C20 FRP (Canis familiaris [38]): Partially active
Efficacy (Canis familiaris [39]): 5
C20 APD95 (Canis familiaris [40]): 0.2 µM
Efficacy (Canis familiaris [41]): 7
delta Vmax (Canis familiaris [42]): -18%
